Numbers after ± are expanded uncertainties.
Conditions: Gas, Buoyancy - hydrostatic balance with magnetic suspension - one sinker

N#N [nitrogen]
Conditions | mass density [kg/m3]
304.03 K, 17990 kPa | 190.64 ± 0.041
304.1 K, 16877 kPa | 180.004 ± 0.073
304.11 K, 6796 kPa | 75.316 ± 0.062
304.11 K, 12948 kPa | 140.851 ± 0.042
304.12 K, 5782 kPa | 64.151 ± 0.039
304.13 K, 8812 kPa | 97.213 ± 0.066
304.14 K, 4379 kPa | 48.633 ± 0.04
304.15 K, 2926 kPa | 32.502 ± 0.021
304.15 K, 7820 kPa | 86.489 ± 0.035
304.15 K, 11901 kPa | 129.994 ± 0.026
304.15 K, 15984 kPa | 171.278 ± 0.042
304.16 K, 10861 kPa | 119.075 ± 0.026
304.16 K, 14927 kPa | 160.84 ± 0.048
304.17 K, 13944 kPa | 150.964 ± 0.04
304.23 K, 9837 kPa | 108.209 ± 0.035
304.55 K, 2607 kPa | 28.885 ± 0.02
304.66 K, 3534 kPa | 39.15 ± 0.019
304.66 K, 7983 kPa | 88.017 ± 0.023
304.69 K, 7136 kPa | 78.822 ± 0.023
304.73 K, 16296 kPa | 173.901 ± 0.036
304.75 K, 8937 kPa | 98.306 ± 0.1
304.75 K, 12245 kPa | 133.207 ± 0.031
304.77 K, 4983 kPa | 55.145 ± 0.017
304.77 K, 14270 kPa | 153.864 ± 0.028
304.78 K, 10988 kPa | 120.097 ± 0.039
304.8 K, 3016 kPa | 33.394 ± 0.018
304.82 K, 5885 kPa | 65.065 ± 0.018
304.83 K, 8012 kPa | 88.26 ± 0.03
304.83 K, 10043 kPa | 110.076 ± 0.027
304.88 K, 3013 kPa | 33.353 ± 0.015
304.88 K, 18305 kPa | 192.939 ± 0.047
304.89 K, 6933 kPa | 76.521 ± 0.02
305.04 K, 4986 kPa | 55.132 ± 0.02
305.17 K, 4987 kPa | 55.12 ± 0.028
